Source: ChEMBL document CHEMBL1201862, “PubChem BioAssay data set” (2004)
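Protocol summary: plate cells (96-well), add compound at 5 concentrations, incubate 48 h, interpolate endpoints linearly. GI50 = concentration required for 50% inhibition of growth.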 Active and inactive are the calls of the source. Rule as the data show it: active = GI50 up to about 1.1 µM and inactive = higher.

Key:
Assay in all cases: inhibition of tumour cell growth, NCI panel, 48 h
[1] = test system: HL-60
[2] = test system: MDA-MB-231
[3] = test system: UACC-257
[4] = test system: SN12C
[5] = test system: ACHN
[6] = test system: LOX IMVI
[7] = test system: M14
[8] = test system: NCI-H522
[9] = test system: OVCAR-4
[10] = test system: TK-10
[11] = test system: CAKI-1
[12] = test system: A549
[13] = test system: SNB-19
[14] = test system: U-251
[15] = test system: DU-145
[16] = test system: SK-MEL-28
[17] = test system: A498
[18] = test system: MDA-MB-435
[19] = test system: RPMI-8226

Measured: GI50

Cn1c(=O)c2c(nc(C(=N)SCC(=O)O)n2C)n(C)c1=O
inactive: [1] 27.7 µM | [2] > 100 µM | [3] 29.1 µM | [4] 45.9 µM | [5] 41 µM | [6] 48.1 µM | [7] 43.5 µM | [8] 41.9 µM | [9] 24.4 µM | [10] 40.6 µM | [11] 26 µM | [12] 39.5 µM | [13] 52.7 µM | [14] 95.9 µM | [15] 61.2 µM | [16] 37.7 µM | [17] 26.9 µM | [18] 29.2 µM | [19] 42.2 µM

Nc1nc(N)nc(CCCc2nc(N)nc(N)n2)n1
inactive: [1] > 100 µM | [2] > 100 µM | [3] > 100 µM | [4] > 100 µM | [5] > 100 µM | [6] > 100 µM | [7] > 100 µM | [8] > 100 µM | [9] > 100 µM | [10] > 100 µM | [11] > 100 µM | [12] > 100 µM | [13] > 100 µM | [14] > 100 µM | [15] > 100 µM | [16] > 100 µM | [17] > 100 µM | [18] > 100 µM | [19] > 100 µM

Cc1ccc2c(=O)c(C(=O)Nn3c(C)csc3=S)c[nH]c2n1
inactive: [1] > 100 µM | [2] > 100 µM | [3] > 100 µM | [4] > 100 µM | [5] > 100 µM | [6] > 100 µM | [7] > 100 µM | [8] > 100 µM | [9] > 100 µM | [10] > 100 µM | [11] 69 µM | [12] > 100 µM | [13] > 100 µM | [14] > 100 µM | [15] > 100 µM | [16] > 100 µM | [17] > 100 µM | [18] > 100 µM | [19] > 100 µM

COC(=O)[C@@]1(Cc2ccc(OC(C)=O)cc2)Cc2cc3ccccc3n2N1
inactive: [1] 20.3 µM | [2] 29.2 µM | [3] 17.3 µM | [4] 29.6 µM | [5] 58.1 µM | [6] 38.6 µM | [7] 39.4 µM | [8] 24 µM | [9] 75.5 µM | [10] 33.7 µM | [11] > 100 µM | [12] 47.2 µM | [13] 93.8 µM | [14] 30.1 µM | [15] 62.4 µM | [16] 54.6 µM | [17] 23.1 µM | [18] 43.6 µM | [19] 26.6 µM

CCCC(=O)Oc1ccc2c(C)cc(=O)oc2c1OC(=O)CCC
inactive: [2] 42.6 µM | [3] 36.1 µM | [4] 76.6 µM | [5] 49.5 µM | [6] 40.8 µM | [7] 48.6 µM | [9] > 100 µM | [10] 50.4 µM | [12] 31.6 µM | [13] > 100 µM | [14] 57.3 µM | [15] 50.4 µM | [16] 54.2 µM | [17] 30.7 µM | [18] 59.6 µM | [19] 26.4 µM

N#CC(O)CCOCc1ccccc1 (stereo unspecified)
inactive: [1] 34.4 µM | [2] > 100 µM | [3] > 100 µM | [4] > 100 µM | [5] 39.4 µM | [6] 46.9 µM | [7] > 100 µM | [8] 20.5 µM | [9] > 100 µM | [10] > 100 µM | [11] 17.7 µM | [12] > 100 µM | [13] > 100 µM | [14] > 100 µM | [15] > 100 µM | [16] > 100 µM | [17] > 100 µM | [18] > 100 µM | [19] 41.7 µM

CCCCCCCCCCCCCCCCCc1nc(C#N)c(N)o1
inactive: [1] 3.53 µM | [2] 21 µM | [3] > 100 µM | [4] 61 µM | [5] 96.6 µM | [6] 54.3 µM | [7] 98.6 µM | [10] > 100 µM | [11] 19.9 µM | [12] > 100 µM | [13] 73.8 µM | [14] 44.2 µM | [15] > 100 µM | [16] > 100 µM | [17] > 100 µM | [18] > 100 µM | [19] 5.27 µM

O=C(O)CCCc1ccc2ccc3ccccc3c2c1
inactive: [2] 73.1 µM | [3] 56.2 µM | [4] > 100 µM | [5] 46.2 µM | [6] 96.4 µM | [7] > 100 µM | [8] 39.6 µM | [9] > 100 µM | [10] 57.4 µM | [11] > 100 µM | [12] 61 µM | [13] > 100 µM | [14] 71.1 µM | [15] > 100 µM | [16] 81.8 µM | [17] 73.5 µM | [18] > 100 µM | [19] 38.8 µM
